Laboratory results from patent US20210078958A1, “QUINAZOLINE DERIVATIVE AND USE THEREOF” (MEDSHINE DISCOVERY INC., priority 2017, published 2021).

Assays:
[1] = test system: NCI-N87 cell; assay: inhibitory activity on cell proliferation (Cell-Titer-Glo), NCI-N87; assay type: cell-based; conditions: Homo sapiens
Excerpt: (§1) Purpose of the assay: to detect the inhibitory activity of the test compounds on cell proliferation.
(§2) Principle of the assay: the luciferase in a Cell-Titer-Glo reagent produces oxidized luciferin with luciferin, oxygen and ATP as reaction substrates, and releases energy in the form of light. Since the luciferase reaction requires ATP, the total amount of light generated by the reaction is proportional to the total amount of ATP that reflects cell viability.
(§3) Cell Titer-Glo cell viability assay kit with luminescence (Promega #G7573)
(§4) According to the schematic diagram of the cell seed plate, cells were seeded in a 384- or 96-well plate at a density of 1000 cells per well and 25 μL per well, and 25 μL of PBS was added to the wells near edge of the place where no cells were seeded.
(§5) (1) The stock solution of the compounds has a concentration of 10 mM, and the compounds were diluted with DMSO to an initial concentration of 4 mM. The compounds were added to the plate with stock solution of compounds, 9 μL per well.
(§6) (2) The compounds were diluted with an ECHO liquid workstation, where 125 nL of compounds were added to each well of the cell plate, 125 nL of DMSO was added to each of the cell well in columns 2 and 23, and 125 nL of DMSO was added to each PBS well in columns 1 and 24.
(§7) 2.3 After addition of the compounds, the cell plate was centrifuged at 1000 rpm for 1 min, and then placed in a 37° C., 5% CO2 incubator for incubation for 3 days.
(§8) The cell plate was taken out from the incubator and equilibrated at room temperature for 30 minutes. 25 μL of Cell-Titer-Glo reagent was added to each well, shaken for one minute to allow well mixed, and centrifuged at 1000 rpm for 1 minute. After 10 minutes, the plate was read on PerkinElmer Envision, and the […] reading time was set to 0.2 second.

[2] = test system: BT-474 cell; assay: inhibitory activity on cell proliferation (Cell-Titer-Glo), BT-474; assay type: cell-based; conditions: Homo sapiens
Excerpt: as §1, §2, §3, §4, §5, §6, §7, §8

[3] = molecular target: HER2 (ErbB2) (Homo sapiens, UniProt P04626); assay: in vitro enzyme activity, HER2 (ErbB2); assay type: biochemical; conditions: human ErbB2, [γ-33P]ATP, poly(Glu, Tyr) substrate
Sequence of HER2 (ErbB2) (P04626 23-1255): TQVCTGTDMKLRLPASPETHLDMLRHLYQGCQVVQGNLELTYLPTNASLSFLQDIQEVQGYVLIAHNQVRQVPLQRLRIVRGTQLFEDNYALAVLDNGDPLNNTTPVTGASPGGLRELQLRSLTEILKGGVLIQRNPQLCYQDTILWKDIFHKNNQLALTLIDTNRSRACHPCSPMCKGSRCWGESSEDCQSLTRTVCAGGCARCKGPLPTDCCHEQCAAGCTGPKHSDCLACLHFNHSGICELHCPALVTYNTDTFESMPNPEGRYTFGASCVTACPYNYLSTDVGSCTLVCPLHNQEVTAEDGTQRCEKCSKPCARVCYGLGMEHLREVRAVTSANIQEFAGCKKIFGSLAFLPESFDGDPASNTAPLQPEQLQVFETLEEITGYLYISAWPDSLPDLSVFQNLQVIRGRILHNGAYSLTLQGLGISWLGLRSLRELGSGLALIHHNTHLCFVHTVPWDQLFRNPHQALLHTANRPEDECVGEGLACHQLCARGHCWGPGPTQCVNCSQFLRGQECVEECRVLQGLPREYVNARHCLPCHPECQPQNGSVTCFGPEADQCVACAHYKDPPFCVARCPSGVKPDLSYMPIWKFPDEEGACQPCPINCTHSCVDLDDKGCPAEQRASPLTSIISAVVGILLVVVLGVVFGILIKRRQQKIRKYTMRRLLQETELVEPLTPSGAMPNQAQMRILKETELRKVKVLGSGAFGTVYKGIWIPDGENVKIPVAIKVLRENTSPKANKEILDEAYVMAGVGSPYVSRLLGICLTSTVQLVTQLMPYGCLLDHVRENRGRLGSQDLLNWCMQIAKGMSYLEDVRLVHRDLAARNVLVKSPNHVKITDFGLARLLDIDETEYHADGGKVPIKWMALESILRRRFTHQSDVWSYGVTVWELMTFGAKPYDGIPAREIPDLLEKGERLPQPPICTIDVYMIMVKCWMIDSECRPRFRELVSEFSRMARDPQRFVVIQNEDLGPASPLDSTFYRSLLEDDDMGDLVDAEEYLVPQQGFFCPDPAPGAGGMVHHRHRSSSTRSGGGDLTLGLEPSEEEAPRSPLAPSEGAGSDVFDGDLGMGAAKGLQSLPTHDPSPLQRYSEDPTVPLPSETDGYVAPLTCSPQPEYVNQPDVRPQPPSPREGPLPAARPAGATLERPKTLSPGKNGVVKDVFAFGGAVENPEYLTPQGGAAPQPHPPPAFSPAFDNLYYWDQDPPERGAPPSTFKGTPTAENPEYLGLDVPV
Method: (§9) The purpose of this assay is to detect the in vitro inhibitory activity of compounds on HER1 (ErbB1), HER2 (ErbB2), and HER4 (ErbB4). The enzymes used in this assay are human ErbB1, ErbB2 and ErbB4. Eurofins Pharma Discovery Service provided the method for activity detection.
(§10) Steps and Method of the Assay (96-Well Plate):
(§11) A buffer solution of the test compounds in a dilution of 5-fold (5 μL), polypeptide substrate poly(Glu, Tyr) (4:1) (2.5 μL), ErbB (4-20 ng, 2.5 μL), MnCl2 (50 mM, 1.25 μL), dH2O (3.75 μL), and [γ-^33P]ATP (10 μL) were added, and incubated at 30° C. for 10 minutes. The reaction was terminated by adding 3% phosphoric acid. 10 μL of the sample was taken and transferred to Filtermate A. The filter disc was washed 3 times with 75 mM phosphoric acid and once with methanol. The filter disc was transferred to a sealed plastic bag and the scintillation mixture (4 mL) was added. The intensity of the emitted photon was detected by a scintillation luminescence counter. The CPM (times/min) of the enzyme sample was compared with the CPM of the internal control sample. The level of photon intensity reflected the degree of the tyrosine kinase activity.

[4] = molecular target: HER1 (ErbB1) (Homo sapiens, UniProt P00533); assay: in vitro enzyme activity, HER1 (ErbB1); assay type: biochemical; conditions: human ErbB1, [γ-33P]ATP, poly(Glu, Tyr) substrate
Sequence of HER1 (ErbB1) (P00533 25-1210): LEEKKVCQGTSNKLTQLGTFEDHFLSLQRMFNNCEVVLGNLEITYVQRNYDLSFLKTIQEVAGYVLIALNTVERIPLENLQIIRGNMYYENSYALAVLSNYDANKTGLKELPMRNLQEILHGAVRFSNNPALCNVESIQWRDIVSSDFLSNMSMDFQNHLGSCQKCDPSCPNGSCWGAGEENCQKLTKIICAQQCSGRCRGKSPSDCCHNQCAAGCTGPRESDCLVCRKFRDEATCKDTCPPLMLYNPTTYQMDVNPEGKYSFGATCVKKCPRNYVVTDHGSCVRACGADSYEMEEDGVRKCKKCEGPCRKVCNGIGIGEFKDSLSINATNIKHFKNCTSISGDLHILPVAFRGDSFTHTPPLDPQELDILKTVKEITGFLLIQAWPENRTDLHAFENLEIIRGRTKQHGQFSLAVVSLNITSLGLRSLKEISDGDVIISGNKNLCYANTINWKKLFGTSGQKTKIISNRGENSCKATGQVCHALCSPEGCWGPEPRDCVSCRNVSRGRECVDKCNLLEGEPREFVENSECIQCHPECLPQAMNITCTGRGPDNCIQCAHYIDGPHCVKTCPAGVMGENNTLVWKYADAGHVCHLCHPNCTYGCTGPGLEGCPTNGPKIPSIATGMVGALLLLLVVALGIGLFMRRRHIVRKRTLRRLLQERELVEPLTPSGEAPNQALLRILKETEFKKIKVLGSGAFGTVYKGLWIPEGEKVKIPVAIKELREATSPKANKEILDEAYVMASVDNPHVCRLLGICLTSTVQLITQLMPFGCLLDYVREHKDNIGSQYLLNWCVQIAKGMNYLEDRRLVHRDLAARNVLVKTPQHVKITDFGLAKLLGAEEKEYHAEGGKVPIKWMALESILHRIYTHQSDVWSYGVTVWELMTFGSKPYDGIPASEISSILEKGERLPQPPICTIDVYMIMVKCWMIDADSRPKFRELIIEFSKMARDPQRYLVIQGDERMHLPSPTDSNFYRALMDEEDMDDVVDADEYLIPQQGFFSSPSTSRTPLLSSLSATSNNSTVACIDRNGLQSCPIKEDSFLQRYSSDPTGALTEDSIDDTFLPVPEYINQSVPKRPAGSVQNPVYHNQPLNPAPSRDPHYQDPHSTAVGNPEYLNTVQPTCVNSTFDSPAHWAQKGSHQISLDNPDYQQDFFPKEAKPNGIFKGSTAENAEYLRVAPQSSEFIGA
Method: as §9, §10, §11

[5] = molecular target: HER4 (ErbB4) (Homo sapiens, UniProt Q15303); assay: in vitro enzyme activity, HER4 (ErbB4); assay type: biochemical; conditions: human ErbB4, [γ-33P]ATP, poly(Glu, Tyr) substrate
Sequence of HER4 (ErbB4) (Q15303 26-1308): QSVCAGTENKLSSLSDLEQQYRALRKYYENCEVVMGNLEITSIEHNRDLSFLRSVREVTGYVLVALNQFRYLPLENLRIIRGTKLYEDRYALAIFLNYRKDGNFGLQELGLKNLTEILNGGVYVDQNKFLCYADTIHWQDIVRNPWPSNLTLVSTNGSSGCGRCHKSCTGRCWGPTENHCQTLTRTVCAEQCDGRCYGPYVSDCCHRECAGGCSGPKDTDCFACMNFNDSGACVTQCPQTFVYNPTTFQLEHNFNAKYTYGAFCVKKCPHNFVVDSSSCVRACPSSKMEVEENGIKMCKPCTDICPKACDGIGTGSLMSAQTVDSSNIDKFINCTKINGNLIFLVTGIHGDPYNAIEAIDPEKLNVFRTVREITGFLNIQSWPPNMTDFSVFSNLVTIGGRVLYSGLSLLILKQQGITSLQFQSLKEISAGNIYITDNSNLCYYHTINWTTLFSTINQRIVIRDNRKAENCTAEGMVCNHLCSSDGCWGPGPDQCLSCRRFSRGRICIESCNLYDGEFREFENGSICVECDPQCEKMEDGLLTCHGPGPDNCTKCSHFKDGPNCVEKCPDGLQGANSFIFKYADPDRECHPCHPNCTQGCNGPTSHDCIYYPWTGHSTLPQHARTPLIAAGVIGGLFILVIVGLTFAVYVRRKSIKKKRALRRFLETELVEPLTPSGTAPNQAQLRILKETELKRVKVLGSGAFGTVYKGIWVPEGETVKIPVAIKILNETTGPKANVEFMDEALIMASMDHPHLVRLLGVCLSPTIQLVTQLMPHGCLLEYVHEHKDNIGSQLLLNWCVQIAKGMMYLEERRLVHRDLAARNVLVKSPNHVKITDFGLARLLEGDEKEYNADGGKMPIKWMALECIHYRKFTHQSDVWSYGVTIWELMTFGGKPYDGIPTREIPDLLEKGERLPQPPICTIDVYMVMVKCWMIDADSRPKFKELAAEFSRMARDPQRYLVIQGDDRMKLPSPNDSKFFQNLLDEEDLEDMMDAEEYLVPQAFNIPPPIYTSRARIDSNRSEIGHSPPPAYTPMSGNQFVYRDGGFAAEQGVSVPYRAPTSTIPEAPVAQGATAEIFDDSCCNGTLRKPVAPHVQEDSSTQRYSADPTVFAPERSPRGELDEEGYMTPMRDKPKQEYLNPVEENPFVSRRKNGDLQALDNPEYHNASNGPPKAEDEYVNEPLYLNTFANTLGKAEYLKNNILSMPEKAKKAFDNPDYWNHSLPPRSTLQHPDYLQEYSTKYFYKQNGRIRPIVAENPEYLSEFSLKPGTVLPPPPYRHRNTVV
Method: as §9, §10, §11

[6] = test system: OE21 cell; assay: inhibitory activity on cell proliferation (Cell-Titer-Glo), OE21; assay type: cell-based; conditions: Homo sapiens, OE21, 72 h, incubation for 3 days
Excerpt: as §1, §2, §3, §4, §5, §6, §7, §8

[7] = test system: OE19 cells; assay: CTG assay of OE19 cells; assay type: cell-based; conditions: Homo sapiens, 72 hours of cell culture, Cell Titer Glo
Method: OE19 cells with saturation of 80%-90% were digested with trypsin, centrifuged, resuspended and counted. The concentration of cells was adjusted to […]. OE19 cells were added to a 96-well cell culture plate to 8000 OE19 cells per well. The cells were cultured in a cell incubator containing 5% CO2 at 37° C. overnight.
The stock solution of the test compounds was serially 3-fold diluted with DMSO to a total of 10 concentrations. Before the start of the assay, the serially diluted test compounds were further diluted to 10× compound solutions (the compound with a highest concentration contains 1% DMSO) with cell culture medium under sterile conditions. The prepared 10× compound solutions were added to the cell culture plate, and the 10 μL compound solution was added to each well. In this way, the final concentrations of staurosporine as the standard control and all the test compounds were obtained starting from […] as the initial concentration in a 3-fold serial dilution to get 10 test concentrations.
After 72 hours of cell culture, the 96-well cell culture plate was taken out. Cell Titer Glo reagent was added at […], mixed, centrifuged, and incubated at room temperature in the dark for 10 minutes. The cell plate was placed in Envision for reading.
The inhibition rate was calculated according to original data as follows:
Inhibition %=(ZPE−sample detection value)/(ZPE−HPE)×100%
The well containing 10 mM staurosporine on DAY3 (the first day of the assay is the day when compounds were added, and DAY3 is the day when reading is perfomed) was used as the HPE (100% inhibition control) well, and the well containing 0.1% DMSO on DAY3 was used as the ZPE (0% inhibition control) well. Each concentration of test compounds was tested in duplicate.
Non-linear regression analysis was performed using the processed data and GraphPad Prism 6 analysis software to obtain a dose-response curve, and the half-inhibitory concentration (IC50) of the test compounds on OE19 cells was calculated.

[8] = test system: subcutaneous xenograft tumor of human gastric cancer NCI-N87 cells; assay: Assay Example 5: in vivo pharmacodynamics, NCI-N87 xenograft; set-up: species or system BALB/c nude mouse; conditions: 0.5 mg/kg
Method: Purpose of the assay: to evaluate the in vivo efficacy of test compounds disclosed herein on subcutaneous xenograft tumor of human gastric cancer NCI-N87 cells in a BALB/c nude mouse model.
Animals of the assay: female BALB/c nude mice, 6-8 weeks old, weighing 18-22 grams; supplier: shanghai sippr bk laboratory animals Ltd.
Human gastric cancer NCI-N87 cells were cultured in monolayer in vitro. The culture conditions were RPMI-1640 medium plus 10% fetal bovine serum, 100 U/mL penicillin, 100 μg/mL streptomycin, 37° C., 5% CO2. The passaging was performed by conventional digestion with trypsin-EDTA twice a week. When the cell saturation was 80%-90%, the cells were collected, counted and inoculated.
0.2 mL (10×10^6) of NCI-N87 cells (PBS+Matrigel, 1:1) were inoculated subcutaneously on the right back of each mouse. When the average tumor volume reached 156 mm^3, administration to each group was started.
The test compounds were formulated into a 0.05 mg/mL clear solution in the solvents of 10% NMP (N-methylpyrrolidone)+10% ethylene glycol stearate+80% water.
The assay index is to investigate whether tumor growth is inhibited, delayed or cured. Tumor diameter was measured twice a week with a vernier caliper. The calculation formula of tumor volume is: V=0.5a×b^2, wherein a and b represent the long and short diameters of tumor, respectively.
The antitumor efficacy of the compounds were evaluated by TGI (%) or tumor proliferation rate T/C (%). TGI (%) reflects the tumor growth inhibition rate. TGI (%) is calculated as follows: TGI (%)=[1−(average tumor volume at the end of administration for a certain treatment group−average tumor volume at the beginning of administration for this treatment group)/(average tumor volume at the end of treatment for a solvent control group−average tumor volume at the beginning of administration for this solvent control group)]×100%.
Tumor proliferation rate T/C (%): the calculation formula is as follows: T/C (%)=average tumor volume at the end of administration for a certain treatment group/average tumor volume at the end of treatment for the solvent control group×100%.
Statistical analysis included the mean and standard error (SEM) of tumor volume at each time point in each group (See Table 5-1 for specific data). […] The comparison between two groups was analyzed by T-test, and the comparison among three or more groups was analyzed by one-way ANOVA. […] All data analysis was carried out with SPSS 17.0. p<0.05 was considered a significant difference.

[9] = Assay Example 7: pharmacokinetics in mice; assay type: in vivo; conditions: mouse, female BALB/c mice, plasma, dose not given
Method: Purpose of the assay: this assay aims to investigate in vivo plasma pharmacokinetics of the example compounds disclosed herein and the reference compound in female BALB/c mice after the single intravenous injection and intragastric administration thereof.
Animals of the assay: female BALB/c nude mice, 7-9 weeks old, weighted 17-23 grams; supplier: shanghai sippr bk laboratory animals Ltd.
Sample collection: at each time point, a 0.03 mL blood sample was collected from the saphenous vein of the test animal by puncture, and the actual blood collection time was recorded. All blood samples were added into commercial EDTA-K2 anticoagulation tubes with a specification of 1.5 mL (the supplier was Jiangsu KANGJIAN Medical Apparatus Co., Ltd.). Within half an hour after the blood sample was collected, the blood sample was centrifuged at 3000 g at 4° C. for 10 minutes, and the supernatant plasma was drawn, quickly placed in dry ice, and stored in a refrigerator at −80° C. for LC-MS/MS analysis.
Data analysis: Plasma concentrations were processed using a non-compartmental model of WinNonlin™ Version6.3 (Pharsight, MountainView, Calif.) pharmacokinetic software, and pharmacokinetic parameters Cmax, Tmax, T1/2, and AUC0-last were calculated using a linear log trapezoid method.

[10] = NCI-N87, 72 h, incubation for 3 days, Cell-Titer-Glo
[11] = NCI-N87, footnote d: initial dilution concentration of compounds is 10 μM
[12] = BT-474, footnote d: initial dilution concentration of compounds is 10 μM

Structure (SMILES)	IC50 [3]	IC50 [4]	IC50 [5]	IC50 [1, 11]	IC50 [2, 12]	also measured
C=CC(=O)N1[C@@H]2CC[C@H]1C[C@H](Oc1cc3c(Nc4ccc(Cl)c(Cl)c4F)ncnc3cc1OCC)C2 [Example 21]	5 nM	12 nM	3 nM			IC50 [1, 10]: 0.35 nM; IC50 ([2]; BT-474, 72 h, incubation for 3 days, Cell-Titer-Glo): 0.46 nM
C=CC(=O)N1[C@@H]2CC[C@H]1C[C@H](Nc1cc3c(Nc4ccc(F)c(Cl)c4F)ncnc3cc1OC)C2 [Example 48]	11 nM	9 nM	4 nM			IC50 [6]: 0.17 nM; IC50 [7]: 0.24 nM
C=CC(=O)N1C[C@H]2C[C@@H](C1)[C@H]2Nc1cc2c(Nc3ccc(Cl)c(Cl)c3F)ncnc2cc1OC [Example 9]	13 nM	9 nM	8 nM	0.9 nM	2.1 nM	
C=CC(=O)N1[C@@H]2CC[C@H]1C[C@H](Oc1cc3c(Nc4ccc(F)c(Cl)c4F)ncnc3cc1OC)C2 [Example 34]	4 nM	5 nM	2 nM			IC50 [1, 10]: 0.42 nM; IC50 [6]: 0.27 nM; IC50 [7]: 0.001 nM
C=CC(=O)N1C[C@H]2C[C@@H](C1)[C@H]2Oc1cc2c(Nc3ccc(Cl)c(Cl)c3F)ncnc2cc1OCCCN1CCOCC1 [Example 18]	12 nM	9 nM	5 nM	1.3 nM	2.4 nM	
C=CC(=O)N1CCC(Nc2cc3c(Nc4ccc(F)c(Cl)c4)ncnc3cc2OC)CC1 [Control compound 2]						Tumor volume (mm^3) (Day 21) ([8]; NCI-N87 xenograft, Mean + SEM): 541 ± 88 mm^3; T/C (%) ([8]; day 21): 89.35%; TGI (%) ([8]; day 21): 18.83%; Tmax ([9]; oral): 2 h; half-life ([9]; oral): 1.5 h; AUC(0-t) ([9]; oral plasma exposure): 82 µM·h; Cmax ([9]; oral plasma exposure): 15.3 µM
C=CC(=O)N1C[C@H]2C[C@@H](C1)[C@H]2Oc1cc2c(Nc3ccc(Cl)c(Cl)c3F)ncnc2cc1OCCO [Example 13]	8 nM	5 nM	7 nM	1.6 nM	2 nM	
